The source of these data is patent publication US20040254131A1, “Method for prevention or treatment of diseases or disorders related to excessive formation of vascular tissue or blood vessels” (priority 2003, published 2004).

In one data set the test system is rat NPY Y2 mRNA. The experiment in a line: Hyperoxia/ischemia-induced retinal neovascularization (retinopathy) in newborn rats. The data set is classed as in vivo. The following applies: for retinal capillary vessel formation in fluorescein images (FIG. 3): fluorescence microscopy of flat-mounted retinas; for Mean ± SD of quantitated neovascularization (amount of retinal vessels crossed by a constant length line): newborn Sprague Dawley rats, cyclic hyperoxia 40%/80% then room air, intraperitoneal treatment, eyes collected at age 20 days. An excerpt: The present study was undertaken to determine the impact of NPY Y2 receptor targeted intervention on neovascularization and development of retinopathy. Development of retinopathy was induced to newborn rats by cyclic hyperoxia and following relative ischemia-induced retinal neovascularization. Hyperoxemia is toxic to developing retinal vessels causing damage and hypoxia in the retina. After moving to normal air, relative hypoxia follows further promoting neovascularization of the retina.
Three groups of rat puppies were subjected for different treatments; 1) vehicle, 2) NPY Y2 receptor targeted antisense oligonucleotide sequence, and 3) scramble oligonucleotide sequence containing the same oligonucleotides as NPY Y2 receptor targeted antisense oligonucleotide sequence. The treatments were administered intraperitoneally. The retinal vessels were investigated and retinopathic changes were compared between treatment groups.
Retinopathy was assessed after injection of fluorescent-labelled dextran to the circulation. The eyes were flat-mounted on slides and the retinal vessels were visualized and investigated by fluorescence microscopy. Statistical differences were calculated between the study groups.
Study protocol was approved by the Joint Ethics Committee of Turku University. Development of retinopathy was induced to newborn rats (Sprague Dawley) by cyclic hyperoxia and following relative ischemia. Hyperoxia is toxic to developing retinal vessels causing damage and hypoxia in the retina, which induces neovascularization. After moving to normal air, relative hypoxia follows further promoting neovascularization of the retina. Hypoxia is one of the major causes of retinal neovascularization in human retinopathies also. The newborn rats were kept in a hyperoxic incubator with their mothers. Retinal neovascularization was induced simultaneously for all three groups of puppies. One treatment group consisted originally of 7 puppies, which underwent cyclic hyperoxia at the age of 3 days, continued until at the age of 14 days and remained in normal room air from the age of 14 to 17 days. The amount of oxygen inside the incubator was kept at 40% and 80% in 12 hour cycles for 10 days (days from 3 to 13).
The three groups of puppies were subjected for different treatments; 1) plain vehicle, 2) NPY Y2 receptor targeted antisense oligodeoxynucleotide sequence (5′-CCTCTGCACCTAATGGGCCC -3′ (SEQ ID NO:38), containing 20 thioate modified bases) diluted in vehicle and 3) scramble oligodeoxynucleotide sequence containing the same deoxynucleotides as NPY Y2 receptor targeted antisense oligodeoxynucleotide sequence but in a random order (5′-CCATGGTAATCCGCCGCTCC-3′ (SEQ ID NO:39), containing 20 thioate modified bases) diluted in vehicle. The treatments were administered intraperitoneally. The retinal vessels were investigated and retinopathic changes were compared between treatment groups. The used NPY Y2 receptor targeted antisense deoxynucleotide sequence was designed complementary to next 20 bases from NPY Y2 gene transcription initiation codon (ATG).
At the age of 20 days, rats were decapitated and eyes were collected. Retinopathy and retinal neovascularization was assessed after an injection of fluorescent-labelled dextran to the circulation trough heart puncture. One eye from each puppy was used for visualization of retinal vessels. The eyes were flat-mounted on slides and the retinal vessels were visualized and investigated by fluorescence microscopy. Pictures of retinas were acquired using a Leica DMR/DC100 microscope and Leica DC Wiever software.
The amount of retinal capillaries was analyzed by counting the amount of vessels crossed by a constant length line using plot profile analysis (Image-J 2.6 program). Each retina was analyzed in 3-5 representative areas and the mean values were used for further statistical analysis. Only unfolded retinal preparations were used in order to avoid artificial images of neovascularization. […]

For another data set, the system named is hTERT-HUVEC cells. The experiment in a line: Endothelial tube formation assay after liposomal transfection. The data set is classed as cell-based, human. The following applies: for mean ±SEM tube number/well, single nucleotide assay 4A / mean ±SEM tube number/well, single nucleotide assay 4b: oligonucleotide 1 μM, DOTAP/DOPE, 4 h transfection, 3 h on Matrigel; for mean ±SEM tube number/well, single nucleotide assay 4A: non-treated control 60±1.8; for mean ±SEM tube number/well, single nucleotide assay 4b: repeated set, non-treated control 58.0±2.9. On the procedure: A further experiment was carried out in order to study the effect of single antisense molecules and their combinations in the prevention of endothelial cell tube formation by immortal human umbilical vein endothelial cells (hTERT-HUVECs).
Immortal human umbilical vein endothelial cells (hTERT-HUVECs) were obtained from Geron Corporation (Menlo Park, Calif., U.S.A.). hTERT-HUVECs were maintained on a gelatin-coated 100-mm dishes (Corning Costar, N.Y., U.S.A) in growth medium, composed of M199 medium (Gibco, Paisley, Scotland) supplement with 15% (v/v) heat-inactivated fetal bovine serum (Gibco BRL), 2 mM L-glutamine (Gibco BRL), 100 units/ml penicillin/streptomycin (Gibco BRL), 10 units/ml heparin (Sigma) and 20 μg/ml endothelial cell growth factor (Roche Biomolecules) at 37° C. in a humified incubator with 5% CO2 atmosphere. Experiments were performed with cells between passages 20 and 24.
The following phosphorothioate oligonucleotides were synthesized: human neuropeptide Y2-receptor mRNA antisense molecules
N-(1-(2,3-dioleoyloxy)propyl)-N,N,N-trimethyl ammonium methylsulfate (DOTAP) and 1,2-dioleoyl-3-phosphatidylethanolamine (DOPE) were purchased from Avanti Polar Lipids. Cationic liposomes composed of DOTAP/DOPE (1:1 by mol) were prepared as previously described (Ruponen et al., 2001 (43)).
hTERT-HUVECs (5×10^4 cells/well) were seeded onto gelatin-coated 48-multiwell plates (Corning Costar, N.Y., U.S.A) and incubated overnight. For transfection, the growth medium was replaced with 400 μl of transfection medium (M199 medium supplement with 2 mM L-glutamine and 100 units/ml penicillin/streptomycin). Oligonucleotides (final concentration 1 μM) and DOTAP/DOPE liposomes in sterile water were first diluted in MES-HEPES buffered saline (50 mM MES, 50 mM HEPES, 75 mM NaCl, pH 7.2) and then mixed together at a charge ratio +1. The transfection mixture was allowed to stand at room temperature for 20 min and the oligonucleotide/liposome complexes (100 μl) were added dropwise to each well.
After transfection for 4 h hTERT-HUVECs were harvested after trypsin treatment, suspended in growth medium (200 μl) and seeded in growth factor-reduced Matrigel (BD Biosciences) coated 96-well plates (Corning Costar, N.Y., U.S.A). After incubation for 3 h cells were fixed in 4% paraformaldehyde. The formation of tubular structures in each well (7 fields/well) was digitally captured using a Nicon Eclipse TE300 Inverted Microscope (Nicon, Tokyo, Japan) equipped with a Nicon F-601 digital camera (Nicon, Tokyo, Japan). Photographs were taken at 4× magnification.
The efficacy in prevention of formation of tubular structures by hTERT-HUVECs of all 5 synthesized antisense molecules were compared against each others alone and in combination. The number of tubular structures was analyzed by using Adobe Photoshop 5.5 (Adobe Systems Inc., San Jose, Calif., U.S.A) and the results were expressed as means ±SEM of three independent experiments. A set of three experiments was repeated.

“5′-CCATGGTAATCCGCCGCTCC-3′ (CCATGGTAATCCGCCGCTCC; DNA, all phosphorothioate, methylation of C not given here; listed as Rattus sp.) [Scramble, scramble oligodeoxynucleotide, same deoxynucleotides as the Y2 antisense in random order, reference compound]”: in the data set on rat NPY Y2 mRNA, the “retinal capillary vessel formation in fluorescein images (FIG. 3)” value is “irregular and disrupted”; the “Mean ± SD of quantitated neovascularization (amount of retinal vessels crossed by a constant length line)” value was 31.12 ± 0.93. Further, in the data set on rat NPY Y2 mRNA (post hoc comparison), the “difference in retinal neovascularization versus vehicle treatment group” value is listed as “no difference”.
On to “5′-CCCAGGTTATCCACGTCTCC-3′ (DNA, all phosphorothioate, methylation of C not given here; listed as Homo sapiens) [AS-1 control, control oligonucleotide for AS-1, reference compound]”, for which, in the data set on hTERT-HUVEC cells, the “mean ±SEM tube number/well, single nucleotide assay 4A” value was determined as 49.3±8.2 tube number/well and the “mean ±SEM tube number/well, single nucleotide assay 4b” value was 57.0±7.0 tube number/well.
As to “5′-CCTCTGCACCTAATGGGCCC -3′ (antisense CCTCTGCACCTAATGGGCCC; DNA, all phosphorothioate, methylation of C not given here; listed as Rattus sp.) [Y2-antisense, NPY Y2 receptor targeted antisense oligodeoxynucleotide corresponding to rat NPY Y2 mRNA]”, in the data set with rat NPY Y2 mRNA, the “retinal capillary vessel formation in fluorescein images (FIG. 3)” value was “regular and continuous”; the “Mean ± SD of quantitated neovascularization (amount of retinal vessels crossed by a constant length line)” value is given as 24.58 ± 0.84. Besides, the “mean difference in neovascularization compared to vehicle treatment group” value in the data set with rat NPY Y2 mRNA (post hoc Tukey HSD, p<0.001, 95% CI 2.48-8.33) was found to be 5.40. Moreover, the “mean difference in neovascularization compared to scramble treatment group” value in the data set with rat NPY Y2 mRNA (post hoc Tukey HSD, p<0.001, 95% CI 3.76-9.31) worked out at 6.53.
For “5′-CCTCTGCACCTATTGGACCC-3′ (DNA, all phosphorothioate, methylation of C not given here; listed as Homo sapiens) [AS-1, human neuropeptide Y2-receptor mRNA antisense molecule]”, in the data set with hTERT-HUVEC cells, the “mean ±SEM tube number/well, single nucleotide assay 4A” value was found to be 44.0±5.6 tube number/well and the “mean ±SEM tube number/well, single nucleotide assay 4b” value is given as 54.3±10.1 tube number/well.
Consider “5′-GGCCACTGTTCTTTCTGACC-3′ (DNA, all phosphorothioate, methylation of C not given here; listed as Homo sapiens) [AS-3, human neuropeptide Y2-receptor mRNA antisense molecule]”, for which the “efficacy in prevention of tubular structures formation by hTERT-HUVECs (ranking in words)” value in the data set on hTERT-HUVEC cells (FIGS. 4A-4D) is “best efficacy”. Besides, in the data set with hTERT-HUVEC cells, the “mean ±SEM tube number/well, single nucleotide assay 4A” value is listed as 28±7.1 tube number/well and the “mean ±SEM tube number/well, single nucleotide assay 4b” value is reported as 23.0±6.7 tube number/well.
On to “5′-GTTTGTGGCCCGTATTGTTCC-3′ (DNA, all phosphorothioate, methylation of C not given here; listed as Homo sapiens) [AS-2, human neuropeptide Y2-receptor mRNA antisense molecule]”, for which, in the data set with hTERT-HUVEC cells, the “mean ±SEM tube number/well, single nucleotide assay 4A” value worked out at 70.3±11.3 tube number/well and the “mean ±SEM tube number/well, single nucleotide assay 4b” value is listed as 75.0±7.5 tube number/well.
